# Tests used:
# Type in all cases: cell-based
# M1 muscarinic receptor = target: T1, M1 muscarinic receptor (Homo sapiens, UniProt P11229); assay: Functional mobilization of intracellular calcium (FLIPR) in CHO cells expressing M1; conditions: for M1 Activity: CHO cells expressing M1, FLIPR calcium assay; for Emax: CHO, 100% efficacy = maximum response obtained with the Carbachol control
# T1 construct: expressed in transfected cells; host or cells: CHO (M1-CHO)
# T1 sequence (P11229 1-460): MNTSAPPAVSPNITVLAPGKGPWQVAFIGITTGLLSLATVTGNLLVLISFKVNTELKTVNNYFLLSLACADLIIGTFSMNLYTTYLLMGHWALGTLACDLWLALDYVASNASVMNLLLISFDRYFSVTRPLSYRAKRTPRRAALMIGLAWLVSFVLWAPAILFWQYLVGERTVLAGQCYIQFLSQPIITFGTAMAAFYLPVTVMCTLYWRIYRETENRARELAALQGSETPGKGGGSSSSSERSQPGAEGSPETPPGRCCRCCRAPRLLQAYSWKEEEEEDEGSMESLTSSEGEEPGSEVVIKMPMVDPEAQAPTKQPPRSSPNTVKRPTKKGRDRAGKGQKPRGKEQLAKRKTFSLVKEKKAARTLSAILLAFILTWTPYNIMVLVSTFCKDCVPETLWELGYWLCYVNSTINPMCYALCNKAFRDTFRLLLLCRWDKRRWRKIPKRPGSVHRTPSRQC
# How it was run: (§1)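 Calcium flux is read on FLIPR over 60 sec at 488/540 nm in muscarinic-receptor CHO lines. Antagonist mode adds carbachol at EC80 after 15 min compound preincubation or with simultaneous co-application. Agonist mode adds compound alone. Cells carry Fluo-3 or Calcium 3 dye in probenecid-containing pH 7.4 buffer, 0.5% DMSO final.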
# M2 muscarinic receptor = target: T2, M2 muscarinic receptor (Homo sapiens, UniProt P08172); assay: Functional mobilization of intracellular calcium (FLIPR) in CHO cells expressing M2; conditions: for M2 Activity: CHO cells expressing M2, FLIPR calcium assay; for Emax: CHO, 100% efficacy = maximum response obtained with the Carbachol control
# T2 construct: expressed in transfected cells; host or cells: CHO (M2-CHO)
# T2 sequence (P08172 1-466): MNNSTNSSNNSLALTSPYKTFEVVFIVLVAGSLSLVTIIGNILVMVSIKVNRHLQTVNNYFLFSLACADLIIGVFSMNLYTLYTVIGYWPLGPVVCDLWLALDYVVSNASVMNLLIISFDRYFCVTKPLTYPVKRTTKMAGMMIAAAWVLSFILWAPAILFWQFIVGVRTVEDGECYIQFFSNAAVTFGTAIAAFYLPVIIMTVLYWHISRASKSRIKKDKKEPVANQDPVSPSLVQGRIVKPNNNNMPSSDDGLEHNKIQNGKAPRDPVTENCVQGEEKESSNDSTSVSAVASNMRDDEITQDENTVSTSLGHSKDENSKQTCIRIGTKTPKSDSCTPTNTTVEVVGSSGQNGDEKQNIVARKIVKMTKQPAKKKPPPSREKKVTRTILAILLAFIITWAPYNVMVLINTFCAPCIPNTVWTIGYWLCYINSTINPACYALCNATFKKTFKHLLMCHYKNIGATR
# How it was run: as §1
# M3 muscarinic receptor = target: T3, M3 muscarinic receptor (Homo sapiens, UniProt P20309); assay: Functional mobilization of intracellular calcium (FLIPR) in CHO cells expressing M3; conditions: for M3 Activity: CHO cells expressing M3, FLIPR calcium assay; for Emax: CHO, 100% efficacy = maximum response obtained with the Carbachol control
# T3 construct: expressed in transfected cells; host or cells: CHO (M3-CHO)
# T3 sequence (P20309 whole entry): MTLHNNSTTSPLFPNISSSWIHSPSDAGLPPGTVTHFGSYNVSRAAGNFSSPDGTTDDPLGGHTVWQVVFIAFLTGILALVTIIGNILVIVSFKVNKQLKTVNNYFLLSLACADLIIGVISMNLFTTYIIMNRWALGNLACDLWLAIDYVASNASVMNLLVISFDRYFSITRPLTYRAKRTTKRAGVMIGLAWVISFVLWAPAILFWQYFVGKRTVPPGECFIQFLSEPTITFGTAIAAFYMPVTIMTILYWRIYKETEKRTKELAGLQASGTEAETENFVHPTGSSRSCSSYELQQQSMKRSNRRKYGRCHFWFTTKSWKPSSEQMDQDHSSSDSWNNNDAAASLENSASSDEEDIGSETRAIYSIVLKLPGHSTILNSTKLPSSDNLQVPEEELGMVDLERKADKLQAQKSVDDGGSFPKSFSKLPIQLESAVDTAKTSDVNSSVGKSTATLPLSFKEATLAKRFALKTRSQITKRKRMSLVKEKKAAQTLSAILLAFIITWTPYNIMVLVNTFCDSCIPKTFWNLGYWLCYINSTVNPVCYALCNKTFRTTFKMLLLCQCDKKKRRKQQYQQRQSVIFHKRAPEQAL
# How it was run: as §1
# M4 muscarinic receptor = target: T4, M4 muscarinic receptor (Homo sapiens, UniProt P08173); assay: Functional mobilization of intracellular calcium (FLIPR) in CHO cells expressing M4; conditions: for M4 Activity: CHO cells expressing M4, FLIPR calcium assay; for Emax: CHO, 100% efficacy = maximum response obtained with the Carbachol control
# T4 construct: expressed in transfected cells; host or cells: CHO (M4-CHO)
# T4 sequence (P08173 1-479): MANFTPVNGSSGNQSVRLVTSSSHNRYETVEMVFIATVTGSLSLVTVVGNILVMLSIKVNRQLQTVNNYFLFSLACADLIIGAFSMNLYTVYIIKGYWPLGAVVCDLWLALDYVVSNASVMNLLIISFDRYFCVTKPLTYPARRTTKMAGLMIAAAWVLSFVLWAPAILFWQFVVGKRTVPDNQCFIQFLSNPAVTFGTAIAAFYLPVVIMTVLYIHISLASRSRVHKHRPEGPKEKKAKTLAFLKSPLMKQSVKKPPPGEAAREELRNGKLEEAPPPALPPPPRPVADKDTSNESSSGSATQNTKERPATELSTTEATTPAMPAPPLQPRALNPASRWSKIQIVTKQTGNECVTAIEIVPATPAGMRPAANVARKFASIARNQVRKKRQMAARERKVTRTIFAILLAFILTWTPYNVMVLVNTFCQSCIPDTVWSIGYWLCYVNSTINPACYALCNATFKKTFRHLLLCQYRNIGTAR
# How it was run: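 Recombinant CHO cells loaded with Fluo-3 AM or Calcium 3 dye in pH 7.4 buffer containing 1 mM probenecid, with 0.5% final DMSO. For agonism, compound is added directly. For inhibition, it is preincubated 15 min, or co-applied, before carbachol at EC80. FLIPR fluorescence (ex 488, em 540 nm) is recorded for 60 s.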
Structure (SMILES),M1 Activity (M1 muscarinic receptor),Emax (M1 muscarinic receptor),M2 Activity (M2 muscarinic receptor),Emax (M2 muscarinic receptor),M3 Activity (M3 muscarinic receptor),Emax (M3 muscarinic receptor),M4 Activity (M4 muscarinic receptor),Emax (M4 muscarinic receptor)
CC(C)CCN1CCC2(CC1)C[C@H](NC(=O)C1CC1)c1ccccc12 [compound 247],+ (activity was measured to be greater than 5.0 μM),25 to 100%,+ (activity was measured to be greater than 5.0 μM),< 25%,+ (activity was measured to be greater than 5.0 μM),< 25%,+ (activity was measured to be greater than 5.0 μM),< 25%
CC/C=C\CCCCCCN1CCC2(CC1)C[C@H](NC(C)=O)c1ccccc12 [compound 248],++ (activity was measured to be from 2.0 μM to 5.0 μM),25 to 100%,+ (activity was measured to be greater than 5.0 μM),< 25%,+ (activity was measured to be greater than 5.0 μM),< 25%,+ (activity was measured to be greater than 5.0 μM),25 to 100%
CC(C)(C)CCN1CCC2(CC1)CC(C(=O)O)c1ccccc12 (centres unmarked) [compound 250],+ (activity was measured to be greater than 5.0 μM),25 to 100%,+ (activity was measured to be greater than 5.0 μM),< 25%,+ (activity was measured to be greater than 5.0 μM),< 25%,+ (activity was measured to be greater than 5.0 μM),25 to 100%
CC(C)(C)CCN1CCC2(CC1)C[C@H](NC(=O)N1CCCC1)c1ccccc12 [compound 251],+ (activity was measured to be greater than 5.0 μM),< 25%,+ (activity was measured to be greater than 5.0 μM),< 25%,+ (activity was measured to be greater than 5.0 μM),< 25%,+ (activity was measured to be greater than 5.0 μM),< 25%
Cc1ccc2c(c1)C(=O)CC21CCN(C(=O)OC(C)(C)C)CC1 [compound 252],+ (activity was measured to be greater than 5.0 μM),< 25%,+ (activity was measured to be greater than 5.0 μM),< 25%,+ (activity was measured to be greater than 5.0 μM),< 25%,+ (activity was measured to be greater than 5.0 μM),< 25%
CC(=O)N[C@H]1CC2(CCN(CCC(C)(C)C)CC2)c2ccc(C)cc21 [compound 253],+ (activity was measured to be greater than 5.0 μM),< 25%,+ (activity was measured to be greater than 5.0 μM),< 25%,+ (activity was measured to be greater than 5.0 μM),< 25%,+ (activity was measured to be greater than 5.0 μM),25 to 100%
CC(C)(C)OC(=O)N1CCC2(CC1)C[C@H](NC(=O)c1ccccc1)c1ccccc12 [compound 255],+ (activity was measured to be greater than 5.0 μM),< 25%,+ (activity was measured to be greater than 5.0 μM),< 25%,+ (activity was measured to be greater than 5.0 μM),< 25%,+ (activity was measured to be greater than 5.0 μM),< 25%
CC(=O)N[C@H]1CC2(CCN(CC(=O)O)CC2)c2ccccc21 [compound 256],+ (activity was measured to be greater than 5.0 μM),< 25%,+ (activity was measured to be greater than 5.0 μM),< 25%,+ (activity was measured to be greater than 5.0 μM),< 25%,+ (activity was measured to be greater than 5.0 μM),< 25%
COC(=O)CCCCCN1CCC2(CC1)C[C@H](NC(C)=O)c1ccccc12 [compound 257],+++ (activity was measured to be less than 2.0 μM),> 100%,+++ (activity was measured to be less than 2.0 μM),25 to 100%,+ (activity was measured to be greater than 5.0 μM),25 to 100%,+++ (activity was measured to be less than 2.0 μM),25 to 100%
CC(=O)N[C@H]1CC2(CCN(CC(=O)N(CC#N)C(C)C)CC2)c2ccccc21 [compound 258],+ (activity was measured to be greater than 5.0 μM),< 25%,+ (activity was measured to be greater than 5.0 μM),< 25%,+ (activity was measured to be greater than 5.0 μM),< 25%,+ (activity was measured to be greater than 5.0 μM),< 25%
CC(C)CCN1CCC2(CC1)CC(C(=O)O)c1ccccc12 (centres unmarked) [compound 259],+ (activity was measured to be greater than 5.0 μM),25 to 100%,+ (activity was measured to be greater than 5.0 μM),< 25%,+ (activity was measured to be greater than 5.0 μM),< 25%,+ (activity was measured to be greater than 5.0 μM),< 25%
CC(=O)NC1CCC2(CCN(C(=O)OC(C)(C)C)CC2)c2ccccc21 (centres unmarked) [compound 260],,< 25%,,< 25%,,< 25%,,< 25%
CC(=O)N[C@H]1CC2(CCN(C(=O)OC(C)(C)C)CC2)c2ccc(C)cc21 [compound 261],+ (activity was measured to be greater than 5.0 μM),< 25%,+ (activity was measured to be greater than 5.0 μM),< 25%,+ (activity was measured to be greater than 5.0 μM),< 25%,+ (activity was measured to be greater than 5.0 μM),< 25%
C#CCNC(=O)CN1CCC2(CC1)C[C@H](NC(C)=O)c1ccccc12 [compound 262],+ (activity was measured to be greater than 5.0 μM),< 25%,+ (activity was measured to be greater than 5.0 μM),< 25%,+ (activity was measured to be greater than 5.0 μM),< 25%,+ (activity was measured to be greater than 5.0 μM),< 25%
C=CCC(C)(C)CN1CCC2(CC1)C[C@H](NC(C)=O)c1ccccc12 [compound 263],+ (activity was measured to be greater than 5.0 μM),25 to 100%,+ (activity was measured to be greater than 5.0 μM),< 25%,+ (activity was measured to be greater than 5.0 μM),< 25%,++ (activity was measured to be from 2.0 μM to 5.0 μM),< 25%

# Source: patent US8003660B2, “Modulators of muscarinic receptors” (Vertex Pharmaceuticals Incorporated, priority 2006, dated 2011)
